Measurements published in the supplement of paper PMC10307832.

Legend:
Assay in all cases: relative viability (nuclei count vs DMSO), 5 days (fraction); higher = more cells survive
Cediranib = compound: COc1cc2c(Oc3ccc4[nH]c(C)cc4c3F)ncnc2cc1OCCCN1CCCC1 [Cediranib]
Summary of the method: (§1)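 Only plates meeting two conditions passed: control CV below 25% and at least one doubling. Lung cancer cell lines, kept overnight at 37 °C in 1536-well plates, were pinned with five library-drug doses (not always all listed) √10 apart on vehicle-anchored plates and grown 5 days without medium change. A one-step fix, permeabilisation and Hoechst stain preceded 4× imaging and MetaXpress nuclear counting. Viability equals treated-well nuclei divided by vehicle-well nuclei, as the median over plates.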

Decitabine = compound: Nc1ncn([C@H]2C[C@H](O)[C@@H](CO)O2)c(=O)n1 [Decitabine]
Summary of the method: as §1

Halofuginone = compound: O=C(C[C@H]1NCCC[C@@H]1O)Cn1cnc2cc(Br)c(Cl)cc2c1=O (racemic) [Halofuginone]
Summary of the method: as §1

For NCI-H522, which relative viability (Cediranib; 0.04 µM) is on record?
The relative viability was 1.04.

And the relative viability (Cediranib; 0.1265 µM)?
The relative viability was 0.745.

And the relative viability (Cediranib; 0.4 µM)?
The relative viability was 0.947.

And the relative viability (Cediranib; 1.265 µM)?
Its relative viability is 0.961.

What about the relative viability (Cediranib; 4 µM) of the same cell line?
The relative viability was 1.02.

What about the relative viability (Decitabine; 0.04 µM) of the same cell line?
The relative viability was 0.949.

What about the relative viability (Decitabine; 0.1265 µM) of the same cell line?
The relative viability was 0.938.

And the relative viability (Decitabine; 0.4 µM)?
The relative viability was 0.624.

What about the relative viability (Decitabine; 1.265 µM) of the same cell line?
The relative viability was 0.627.

And the relative viability (Decitabine; 2 µM, anchor plate)?
Its relative viability is 0.686.

What about the relative viability (Decitabine; 4 µM) of the same cell line?
The relative viability was 0.611.

What about the relative viability (Halofuginone; 0.001 µM) of the same cell line?
Its relative viability is 1.06.

What about the relative viability (Halofuginone; 0.003162 µM) of the same cell line?
Its relative viability is 0.924.

And the relative viability (Halofuginone; 0.01 µM)?
The relative viability was 1.04.

And the relative viability (Halofuginone; 0.03162 µM)?
The relative viability was 1.01.

And the relative viability (Halofuginone; 0.1 µM)?
The relative viability was 0.769.

What does the source list for NCI-H460?
relative viability (Cediranib; 0.04 µM): 1.02; relative viability (Cediranib; 0.1265 µM): 0.98; relative viability (Cediranib; 0.4 µM): 0.957; relative viability (Cediranib; 1.265 µM): 0.984; relative viability (Cediranib; 4 µM): 1.05; relative viability (Decitabine; 0.04 µM): 0.929; relative viability (Decitabine; 0.1265 µM): 0.938; relative viability (Decitabine; 0.4 µM): 0.766; relative viability (Decitabine; 1.265 µM): 0.38; relative viability (Decitabine; 2 µM, anchor plate): 0.495; relative viability (Decitabine; 4 µM): 0.265; relative viability (Halofuginone; 0.001 µM): 1.04; relative viability (Halofuginone; 0.003162 µM): 1.03; relative viability (Halofuginone; 0.01 µM): 0.973; relative viability (Halofuginone; 0.03162 µM): 0.975; relative viability (Halofuginone; 0.1 µM): 0.571

With EMC-BAC-2 as the cell line, how does the relative viability (Cediranib; 0.04 µM) read?
The relative viability was 0.957.

What about the relative viability (Cediranib; 0.1265 µM) of the same cell line?
The relative viability was 0.753.

And the relative viability (Cediranib; 0.4 µM)?
Its relative viability is 0.913.

And the relative viability (Cediranib; 1.265 µM)?
The relative viability was 0.933.

And the relative viability (Cediranib; 4 µM)?
Its relative viability is 1.09.

And the relative viability (Decitabine; 0.1265 µM)?
Its relative viability is 1.04.

What about the relative viability (Decitabine; 0.4 µM) of the same cell line?
The relative viability was 0.817.

What about the relative viability (Decitabine; 1.265 µM) of the same cell line?
Its relative viability is 0.726.

What about the relative viability (Decitabine; 2 µM, anchor plate) of the same cell line?
The relative viability was 0.976.

What about the relative viability (Decitabine; 4 µM) of the same cell line?
The relative viability was 0.685.

What about the relative viability (Halofuginone; 0.001 µM) of the same cell line?
The relative viability was 1.07.

What about the relative viability (Halofuginone; 0.003162 µM) of the same cell line?
Its relative viability is 0.977.

What about the relative viability (Halofuginone; 0.01 µM) of the same cell line?
Its relative viability is 1.13.

What about the relative viability (Halofuginone; 0.03162 µM) of the same cell line?
Its relative viability is 0.926.

What about the relative viability (Halofuginone; 0.1 µM) of the same cell line?
Its relative viability is 0.595.

What does the source list for NCI-H23?
relative viability (Cediranib; 0.04 µM): 0.882; relative viability (Cediranib; 0.1265 µM): 0.75; relative viability (Cediranib; 0.4 µM): 0.847; relative viability (Cediranib; 1.265 µM): 0.844; relative viability (Cediranib; 4 µM): 1; relative viability (Decitabine; 0.04 µM): 0.671; relative viability (Decitabine; 0.1265 µM): 0.462; relative viability (Decitabine; 0.4 µM): 0.341; relative viability (Decitabine; 1.265 µM): 0.26; relative viability (Decitabine; 2 µM, anchor plate): 0.324; relative viability (Decitabine; 4 µM): 0.293; relative viability (Halofuginone; 0.001 µM): 0.979; relative viability (Halofuginone; 0.003162 µM): 0.937; relative viability (Halofuginone; 0.01 µM): 0.868; relative viability (Halofuginone; 0.03162 µM): 0.874; relative viability (Halofuginone; 0.1 µM): 0.671

Which relative viability (Cediranib; 0.04 µM) does the source give for NCI-H1793 here?
The relative viability was 0.786.

What about the relative viability (Cediranib; 0.1265 µM) of the same cell line?
Its relative viability is 0.891.

And the relative viability (Cediranib; 0.4 µM)?
The relative viability was 0.704.

And the relative viability (Cediranib; 4 µM)?
Its relative viability is 0.978.

What about the relative viability (Decitabine; 0.04 µM) of the same cell line?
The relative viability was 0.715.

And the relative viability (Decitabine; 0.1265 µM)?
Its relative viability is 0.756.

And the relative viability (Decitabine; 0.4 µM)?
The relative viability was 0.707.

What about the relative viability (Decitabine; 1.265 µM) of the same cell line?
Its relative viability is 0.498.

And the relative viability (Decitabine; 2 µM, anchor plate)?
The relative viability was 0.547.

And the relative viability (Decitabine; 4 µM)?
Its relative viability is 0.398.

What about the relative viability (Halofuginone; 0.001 µM) of the same cell line?
The relative viability was 1.01.

And the relative viability (Halofuginone; 0.003162 µM)?
The relative viability was 0.811.

And the relative viability (Halofuginone; 0.01 µM)?
Its relative viability is 0.904.

And the relative viability (Halofuginone; 0.03162 µM)?
The relative viability was 1.04.

And the relative viability (Halofuginone; 0.1 µM)?
The relative viability was 0.557.

With A-427 as the cell line, how does the relative viability (Cediranib; 0.04 µM) read?
The relative viability was 1.01.

And the relative viability (Cediranib; 0.4 µM)?
Its relative viability is 0.951.

What about the relative viability (Cediranib; 1.265 µM) of the same cell line?
Its relative viability is 0.943.

What about the relative viability (Cediranib; 4 µM) of the same cell line?
The relative viability was 1.07.

And the relative viability (Decitabine; 0.04 µM)?
Its relative viability is 0.668.

And the relative viability (Decitabine; 0.1265 µM)?
Its relative viability is 0.612.

And the relative viability (Decitabine; 0.4 µM)?
Its relative viability is 0.322.

What about the relative viability (Decitabine; 1.265 µM) of the same cell line?
Its relative viability is 0.322.

And the relative viability (Decitabine; 2 µM, anchor plate)?
Its relative viability is 0.558.

And the relative viability (Decitabine; 4 µM)?
The relative viability was 0.292.

What about the relative viability (Halofuginone; 0.001 µM) of the same cell line?
Its relative viability is 1.02.

What about the relative viability (Halofuginone; 0.003162 µM) of the same cell line?
Its relative viability is 1.04.

And the relative viability (Halofuginone; 0.01 µM)?
Its relative viability is 0.89.

And the relative viability (Halofuginone; 0.03162 µM)?
Its relative viability is 0.989.

And the relative viability (Halofuginone; 0.1 µM)?
Its relative viability is 0.921.

ABC-1 was tested. Which relative viability (Cediranib; 0.04 µM) did it give?
Its relative viability is 0.995.

What about the relative viability (Cediranib; 0.1265 µM) of the same cell line?
Its relative viability is 1.11.

What about the relative viability (Cediranib; 0.4 µM) of the same cell line?
The relative viability was 0.851.

What about the relative viability (Cediranib; 1.265 µM) of the same cell line?
Its relative viability is 0.759.

What about the relative viability (Cediranib; 4 µM) of the same cell line?
The relative viability was 0.92.

And the relative viability (Decitabine; 0.04 µM)?
The relative viability was 0.804.

And the relative viability (Decitabine; 0.1265 µM)?
The relative viability was 0.97.

And the relative viability (Decitabine; 0.4 µM)?
The relative viability was 0.758.

What about the relative viability (Decitabine; 1.265 µM) of the same cell line?
Its relative viability is 0.733.

And the relative viability (Decitabine; 2 µM, anchor plate)?
The relative viability was 1.12.

And the relative viability (Decitabine; 4 µM)?
Its relative viability is 0.67.

What about the relative viability (Halofuginone; 0.001 µM) of the same cell line?
The relative viability was 0.939.

And the relative viability (Halofuginone; 0.003162 µM)?
Its relative viability is 1.02.

What about the relative viability (Halofuginone; 0.01 µM) of the same cell line?
The relative viability was 0.881.

What about the relative viability (Halofuginone; 0.03162 µM) of the same cell line?
Its relative viability is 0.934.

What about the relative viability (Halofuginone; 0.1 µM) of the same cell line?
Its relative viability is 0.77.

With IA-LM as the cell line, how does the relative viability (Cediranib; 0.04 µM) read?
The relative viability was 0.951.

What about the relative viability (Cediranib; 0.1265 µM) of the same cell line?
Its relative viability is 0.948.

What about the relative viability (Cediranib; 0.4 µM) of the same cell line?
Its relative viability is 0.877.

And the relative viability (Cediranib; 1.265 µM)?
The relative viability was 0.888.

What about the relative viability (Cediranib; 4 µM) of the same cell line?
Its relative viability is 1.08.

And the relative viability (Decitabine; 0.04 µM)?
Its relative viability is 0.509.

What about the relative viability (Decitabine; 0.1265 µM) of the same cell line?
The relative viability was 0.431.

What about the relative viability (Decitabine; 0.4 µM) of the same cell line?
Its relative viability is 0.272.

And the relative viability (Decitabine; 1.265 µM)?
The relative viability was 0.192.

What about the relative viability (Decitabine; 4 µM) of the same cell line?
The relative viability was 0.158.

What about the relative viability (Halofuginone; 0.001 µM) of the same cell line?
The relative viability was 0.995.

What about the relative viability (Halofuginone; 0.003162 µM) of the same cell line?
The relative viability was 0.94.

And the relative viability (Halofuginone; 0.01 µM)?
Its relative viability is 0.944.

And the relative viability (Halofuginone; 0.03162 µM)?
The relative viability was 0.862.

And the relative viability (Halofuginone; 0.1 µM)?
Its relative viability is 0.354.

With NCI-H322M as the cell line, how does the relative viability (Cediranib; 0.04 µM) read?
The relative viability was 0.929.

And the relative viability (Cediranib; 0.1265 µM)?
Its relative viability is 1.18.

And the relative viability (Cediranib; 0.4 µM)?
The relative viability was 0.871.

And the relative viability (Cediranib; 1.265 µM)?
Its relative viability is 0.819.

What about the relative viability (Cediranib; 4 µM) of the same cell line?
Its relative viability is 1.02.

And the relative viability (Decitabine; 0.04 µM)?
Its relative viability is 0.685.

What about the relative viability (Decitabine; 0.1265 µM) of the same cell line?
The relative viability was 0.821.

And the relative viability (Decitabine; 0.4 µM)?
Its relative viability is 0.742.

What about the relative viability (Decitabine; 1.265 µM) of the same cell line?
Its relative viability is 0.591.

And the relative viability (Decitabine; 2 µM, anchor plate)?
Its relative viability is 0.699.

And the relative viability (Decitabine; 4 µM)?
The relative viability was 0.587.

And the relative viability (Halofuginone; 0.001 µM)?
The relative viability was 0.991.

What about the relative viability (Halofuginone; 0.003162 µM) of the same cell line?
Its relative viability is 0.956.

And the relative viability (Halofuginone; 0.01 µM)?
Its relative viability is 0.883.

What about the relative viability (Halofuginone; 0.03162 µM) of the same cell line?
Its relative viability is 0.649.

What about the relative viability (Halofuginone; 0.1 µM) of the same cell line?
Its relative viability is 0.478.
